Reference: ChEMBL document CHEMBL3400099, “Novel thiazole-thiophene conjugates as adenosine receptor antagonists: synthesis, biological evaluation and docking studies” (Bioorg Med Chem Lett, 2015)

How the values were obtained:
Homo sapiens = species: Homo sapiens; experiment: Selectivity ratio of Ki for human adenosine A2A receptor to Ki for human adenosine A3 receptor
Adenosine receptor A1 = molecular target: T1, Adenosine receptor A1 (Homo sapiens, UniProt P30542); experiment: Displacement of [3H]CCPA from human adenosine A1 receptor expressed in CHO cells; format: cell-based
T1 sequence (P30542 whole entry): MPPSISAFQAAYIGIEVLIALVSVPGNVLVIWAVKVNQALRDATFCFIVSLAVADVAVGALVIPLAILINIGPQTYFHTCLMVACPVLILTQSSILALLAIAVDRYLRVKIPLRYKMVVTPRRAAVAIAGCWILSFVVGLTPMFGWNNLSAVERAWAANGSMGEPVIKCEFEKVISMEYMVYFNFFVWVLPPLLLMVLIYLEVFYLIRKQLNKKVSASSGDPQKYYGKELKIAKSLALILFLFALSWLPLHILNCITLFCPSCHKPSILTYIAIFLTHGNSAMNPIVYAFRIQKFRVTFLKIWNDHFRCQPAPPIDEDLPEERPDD

[1] = molecular target: Adenosine receptors; A1 & A3 (Homo sapiens) (UniProt P30542+P0DMS8); experiment: Selectivity ratio of Ki for human adenosine A1 receptor to Ki for human adenosine A3 receptor
Adenosine receptor A3 = molecular target: T2, Adenosine receptor A3 (Homo sapiens, UniProt P0DMS8); experiment: Displacement of [3H]HEMADO from human adenosine A3 receptor expressed in CHO cells; format: cell-based
T2 sequence (P0DMS8 whole entry): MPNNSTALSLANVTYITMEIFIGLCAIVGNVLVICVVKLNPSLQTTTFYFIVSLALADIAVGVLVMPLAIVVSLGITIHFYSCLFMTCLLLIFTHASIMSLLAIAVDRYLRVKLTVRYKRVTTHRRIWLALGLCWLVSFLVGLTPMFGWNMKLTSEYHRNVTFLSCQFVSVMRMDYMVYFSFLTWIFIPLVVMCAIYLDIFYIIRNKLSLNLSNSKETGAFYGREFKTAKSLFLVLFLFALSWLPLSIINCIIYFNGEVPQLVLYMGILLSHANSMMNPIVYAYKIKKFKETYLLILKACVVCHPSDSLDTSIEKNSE

Adenosine receptor A2a = Adenosine receptor A2a (Homo sapiens, UniProt P29274); experiment: Displacement of [3H]NECA from human adenosine A2A receptor expressed in CHO cells; format: cell-based
Adenosine receptor A2a, sequence (P29274 whole entry): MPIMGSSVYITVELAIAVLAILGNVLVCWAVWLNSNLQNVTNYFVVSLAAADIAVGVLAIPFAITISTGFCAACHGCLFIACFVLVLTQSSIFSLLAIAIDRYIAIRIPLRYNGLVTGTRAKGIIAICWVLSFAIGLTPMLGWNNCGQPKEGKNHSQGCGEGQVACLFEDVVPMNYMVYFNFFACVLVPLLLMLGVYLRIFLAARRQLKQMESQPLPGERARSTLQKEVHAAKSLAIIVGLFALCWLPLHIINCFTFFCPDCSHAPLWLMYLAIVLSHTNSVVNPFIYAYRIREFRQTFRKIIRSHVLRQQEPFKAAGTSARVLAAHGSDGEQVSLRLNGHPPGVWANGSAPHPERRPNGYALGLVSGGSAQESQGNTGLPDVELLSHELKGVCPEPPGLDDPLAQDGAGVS

Row | SMILES | Selectivity ratio (Homo sapiens) | Ki (Adenosine receptor A1) [µM] | Selectivity ratio [1] | Ki (Adenosine receptor A3) [µM] | Ki (Adenosine receptor A2a) [µM]
1 | CCOC(=O)c1c(NC(=O)c2sc(Nc3ccc(OC)cc3)nc2-c2ccc(C)cc2)sc2c1CCCC2 | > 19 | > 10 | > 19 | 0.52 | > 10
2 | Cc1ccc(Nc2nc(-c3ccc(C)cc3)c(C(=O)Nc3sc4c(c3C(N)=O)CCCC4)s2)cc1 | > 30 | > 30 | > 90 | 0.33 | > 10
3 | CCOC(=O)c1c(NC(=O)c2sc(Nc3ccc(C)cc3)nc2-c2ccc(C)cc2)sc2c1CCCC2 | > 14 | > 30 | > 14 | 2.16 | > 30
4 | COc1ccc(Nc2nc(-c3ccc(C)cc3)c(C(=O)Nc3sc4c(c3C#N)CCCC4)s2)cc1 | > 3.1 | > 30 | > 3.1 | 9.56 | > 30
5 | Cc1ccc(Nc2nc(C)c(C(=O)Nc3sc4c(c3C#N)CCCC4)s2)cc1 | 1.5 | > 30 | > 7.8 | 3.87 | 5.67
6 | CCOC(=O)c1c(NC(=O)c2sc(NC(=O)OC)nc2N(C)C)sc2c1CCCC2 | > 3.3 | > 100 | > 3.3 | > 30 | > 100
7 | Cc1ccc(Nc2nc(-c3ccc(C)cc3)c(C(=O)Nc3sc4c(c3C#N)CCCC4)s2)cc1 | – | > 10 | – | > 10 | > 10
8 | Cc1ccc(Nc2nc(N(C)C)c(C(=O)Nc3sc4c(c3C#N)CCCC4)s2)cc1 | > 0.29 | > 100 | > 2.9 | 34 | > 10
9 | CCOC(=O)c1c(NC(=O)c2sc(Nc3ccc(C)cc3)nc2C)sc(C(=O)OC)c1C | 0.33 | > 30 | – | > 30 | > 30
10 | CCOC(=O)c1c(NC(=O)c2sc(Nc3ccc(C)cc3)nc2C)sc2c1CCCC2 | > 3.7 | > 30 | > 3.7 | 8.22 | > 30
11 | CN(C)c1nc(Nc2ccccc2)sc1C(=O)Nc1sc2c(c1C#N)CCCC2 | > 0.84 | > 30 | > 0.84 | 35.6 | > 30

Further compounds by falling Ki (Adenosine receptor A1), results first:

Row | Selectivity ratio (Homo sapiens) | Ki (Adenosine receptor A1) [µM] | Selectivity ratio [1] | Ki (Adenosine receptor A3) [µM] | Ki (Adenosine receptor A2a) [µM] | SMILES
12 | 1.6 | 40.8 | 9.9 | 4.12 | 6.45 | CCOC(=O)c1c(NC(=O)c2sc(Nc3ccccc3)nc2N(C)C)sc2c1CCCC2
13 | 3.1 | 32.4 | 4.5 | 7.13 | 22.3 | Cc1ccc(Nc2nc(N(C)C)c(C(=O)Nc3sc4c(c3C(N)=O)CCCC4)s2)cc1
14 | 3.8 | 23.5 | 5 | 4.71 | 18 | CCOC(=O)c1c(NC(=O)c2sc(Nc3ccc(C)cc3)nc2N(C)C)sc2c1CCCC2
15 | 6.8 | 19 | 4.9 | 3.91 | 26.6 | CCOC(=O)c1c(NC(=O)c2sc(Nc3ccc(C)cc3)nc2N(C)C)sc(C(=O)OC)c1C
16 | 3.5 | 14 | 5.1 | 2.73 | 9.66 | CCOC(=O)c1c(NC(=O)c2sc(Nc3ccc(OC)cc3)nc2N(C)C)sc(C(=O)OC)c1C
17 | 6.9 | 7.75 | 1.9 | 4.09 | 28.4 | CCOC(=O)c1c(NC(=O)c2sc(Nc3ccccc3)nc2-c2ccc(C)cc2)sc2c1CCCC2
18 | 10 | 2.38 | 7.1 | 0.334 | 3.44 | Cc1ccc(-c2nc(Nc3ccccc3)sc2C(=O)Nc2sc3c(c2C(N)=O)CCCC3)cc1
